Source: the supplement of paper PMC10307832

Columns and labels:
Assay in all cases: relative viability (nuclei count vs DMSO), 5 days (fraction); higher = more cells survive
Quizartinib + Olaparib = compound: CC(C)(C)c1cc(NC(=O)Nc2ccc(-c3cn4c(n3)sc3cc(OCCN5CCOCC5)ccc34)cc2)no1 [Quizartinib] + O=C(c1cc(Cc2n[nH]c(=O)c3ccccc23)ccc1F)N1CCN(C(=O)C2CC2)CC1 [Olaparib] (partner 8 µM)
Summary of the method: (§1)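 Each reported value is a median over duplicate plates. It expresses relative viability: treated-well nuclei count divided by vehicle-well nuclei count. Lung cancer cell lines in 1536-well plates were dosed by pin tool a day after seeding, alone with one drug or with a fixed anchor-drug dose plus five library-drug doses (not always all listed) in √10 steps, and nuclei were counted after 5 days.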

YM155 + Trametinib = compound: COCC[n+]1c2c(n(Cc3cnccn3)c1C)C(=O)c1ccccc1C2=O [YM155] + CC(=O)Nc1cccc(-n2c(=O)n(C3CC3)c(=O)c3c(Nc4ccc(I)cc4F)n(C)c(=O)c(C)c32)c1 [Trametinib] (partner 0.02 µM)
Summary of the method: as §1

YM155 + OSI-027 = compound: COCC[n+]1c2c(n(Cc3cnccn3)c1C)C(=O)c1ccccc1C2=O [YM155] + COc1cccc2cc(-c3nc([C@H]4CC[C@H](C(=O)O)CC4)n4ncnc(N)c34)[nH]c12 [OSI-027] (partner 0.5 µM)
Summary of the method: as §1

YM155 + Crizotinib = compound: COCC[n+]1c2c(n(Cc3cnccn3)c1C)C(=O)c1ccccc1C2=O [YM155] + C[C@@H](Oc1cc(-c2cnn(C3CCNCC3)c2)cnc1N)c1c(Cl)ccc(F)c1Cl [Crizotinib] (partner 1 µM)
Summary of the method: as §1

| Cell Line | relative viability (Quizartinib + Olaparib; first compound 0.001 µM) | relative viability (Quizartinib + Olaparib; first compound 0.003162 µM) | relative viability (Quizartinib + Olaparib; first compound 0.03162 µM) | relative viability (Quizartinib + Olaparib; first compound 0.1 µM) | relative viability (YM155 + Trametinib; first compound 0.002 µM) | relative viability (YM155 + Trametinib; first compound 0.006325 µM) | relative viability (YM155 + Trametinib; first compound 0.02 µM) | relative viability (YM155 + Trametinib; first compound 0.06325 µM) | relative viability (YM155 + OSI-027; first compound 0.002 µM) | relative viability (YM155 + OSI-027; first compound 0.006325 µM) | relative viability (YM155 + OSI-027; first compound 0.02 µM) | relative viability (YM155 + OSI-027; first compound 0.06325 µM) | relative viability (YM155 + Crizotinib; first compound 0.002 µM) | relative viability (YM155 + Crizotinib; first compound 0.006325 µM) | relative viability (YM155 + Crizotinib; first compound 0.02 µM) | relative viability (YM155 + Crizotinib; first compound 0.06325 µM) | relative viability (Quizartinib + Olaparib; first compound 0.01 µM) |
| --- | --- | --- | --- | --- | --- | --- | --- | --- | --- | --- | --- | --- | --- | --- | --- | --- | --- |
| HCC-827 | 0.653 | 0.556 | 0.616 | 0.697 | 0.528 | 0.531 | 0.605 | 0.628 | 0.678 | 0.805 | 0.76 | 0.842 | 0.866 | 0.968 | 0.918 | 0.89 | – |
| HOP-62 | – | 0.322 | 0.619 | 0.449 | 0.389 | 0.389 | 0.419 | 0.424 | 0.807 | 0.847 | 0.899 | 0.864 | 0.91 | 1.01 | 0.919 | 0.983 | 0.54 |
| IA-LM | 0.908 | 0.796 | 0.75 | 0.74 | – | – | – | – | – | – | – | – | 0.825 | 0.766 | 0.685 | 0.548 | 0.851 |
| LC-2-ad | 0.697 | 0.635 | 0.747 | 0.86 | 0.928 | 0.925 | 0.866 | 0.87 | 0.804 | 0.917 | 0.773 | 0.621 | 0.446 | 0.428 | 0.496 | 0.453 | 0.757 |
| LCLC-97TM1 | 0.333 | 0.332 | 0.467 | 0.417 | – | 0.178 | 0.23 | 0.21 | 0.442 | 0.539 | 0.548 | 0.469 | 0.401 | 0.4 | 0.442 | 0.318 | 0.406 |
| LCLC-103H | 0.691 | 0.718 | 0.769 | 0.819 | 0.647 | 0.637 | 0.674 | 0.716 | 0.465 | 0.436 | 0.408 | 0.464 | 0.971 | 1.03 | 1.03 | 1 | 0.789 |
| LK-2 | 0.536 | 0.772 | 0.583 | 0.644 | 0.631 | 0.717 | 0.827 | 0.851 | 0.187 | 0.21 | 0.214 | 0.201 | 0.226 | 0.236 | 0.214 | 0.241 | 0.685 |
| LOU-NH91 | 0.87 | 0.885 | 0.838 | 1.01 | 0.8 | 0.747 | 0.807 | 0.788 | 0.689 | 0.751 | 0.757 | 0.762 | 0.735 | 0.688 | 0.731 | 0.727 | 0.931 |
| LU99A | 0.253 | 0.251 | 0.276 | 0.238 | 0.539 | 0.496 | 0.641 | 0.56 | 0.285 | 0.274 | 0.322 | 0.28 | 0.499 | 0.549 | 0.633 | 0.474 | 0.293 |
| LXF-289 | 0.901 | 0.987 | 1 | 0.992 | 0.665 | 0.746 | 0.697 | 0.711 | 0.723 | 0.856 | 0.767 | 0.785 | 0.812 | 0.787 | 0.867 | 0.684 | 1.16 |
